Data set [1] in a line: Solubility, observation in the Jurkat cytotoxicity test. It is filed as physicochemical. On the procedure: (§1) Cytotoxicity was also evaluated in Jurkat cells using a Promega LDH leakage detection kit. Jurkat cells were plated at 10^4 cells/well in a volume of 200 μl. The test was performed after 30 min, 2 hr and 4 hr of exposure to the NYAD-201, NYAD-202 and NYAD-203 compounds.

For the next data set, the system named is HIV-1 RU570. The experiment in a line: Inhibition of primary HIV-1 isolate, p24 ELISA, PBMC. The data set is classed as cell-based. Particulars: subtype G, coreceptor R5, read-out: IC50 (μM ± SD), HIV-1 RU570. On the procedure:
(§2) The inhibitory activity of peptides on infection by primary HIV-1 isolates was determined as previously described (Jiang et al., Antimicrob. Agents Chemother. 48:4349-4359, 2004). Peripheral blood mononuclear cells (PBMCs) were isolated from the blood of healthy donors at the New York Blood Center by standard density gradient centrifugation using Histopaque-1077 (Sigma-Aldrich). The cells were cultured at 37° C. for 2 hr. Nonadherent cells were collected and resuspended at 5×10^6 cells/ml RPMI-1640 medium containing 10% FBS, 5 μg/ml PHA, and 100 U/ml IL-2 (Sigma-Aldrich), followed by incubation at 37° C. for 3 days. The PHA-stimulated cells (5×10^4 cells/well) were infected with primary HIV-1 isolates at 500 TCID50 (0.01 MOI) in the absence or presence of peptide inhibitor at graded concentrations. Culture media were changed every 3 days and replaced with fresh media containing freshly prepared inhibitor. The supernatants were collected 7 days post-infection and tested for p24 antigen by ELISA (FIG. 6). The percent inhibition of p24 production, IC50 and IC90 values were calculated by the GraphPad Prism software (GraphPad Software Inc.).
(§3) NYAD-201, NYAD-202 and NYAD-203 were also tested against a set of primary HIV-1 isolates in PBMC representing mostly group M and one from group O with diverse coreceptor usage. […] The inhibitory activities of the peptides against this diverse range of primary isolates were similar, indicating its effectiveness against a wide range of HIV-1 isolates.
Background: In an ELISA, binding on a coated surface is turned into a signal by an enzyme label.

Another data set has as its system HIV-1 93RW024. The description is as above. The data set is classed as cell-based. The settings on record: subtype A, coreceptor R5X4, read-out: IC50 (μM ± SD), HIV-1 93RW024. As to the method:
as §2, §3

The test system of the next data set is HIV-1 93IN101. The data set is described as above. The settings on record: subtype C, coreceptor R5, read-out: IC50 (μM ± SD), HIV-1 93IN101. It is filed as cell-based. As to the method:
as §2, §3

In another data set the test system is HIV-1 98CN009. The description is as above. The data set is classed as cell-based. The settings on record: subtype C, coreceptor R5, read-out: IC50 (μM ± SD), HIV-1 98CN009. As to the method:
as §2, §3

The next data set deals with HIV-1 93BR020. The description is as above. Particulars: subtype F, coreceptor R5X4, read-out: IC50 (μM ± SD), HIV-1 93BR020. It is filed as cell-based. As to the method:
as §2, §3

In a further data set the test system is HIV-1 92UG029. The data set is described as above. The data set is classed as cell-based. Particulars: subtype A, coreceptor X4, read-out: IC50 (μM ± SD), HIV-1 92UG029. As to the method: as §2, §3
The next data set deals with HIV-1 CMU02. The description is as above. The data set is classed as cell-based. Particulars: subtype EA, coreceptor X4, read-out: IC50 (μM ± SD), HIV-1 CMU02. On the procedure: as §2, §3
Another data set relates to HIV-1 BCF02. The data set is described as above. The data set is classed as cell-based. The settings on record: (Group 0), coreceptor R5, read-out: IC50 (μM ± SD), HIV-1 BCF02. On the procedure:
as §2, §3

The test system of a further data set is HIV-1 92US657. Described as above. The settings on record: subtype B, coreceptor R5, read-out: IC50 (μM ± SD), HIV-1 92US657. It is filed as cell-based. As to the method:
as §2, §3

The test system of the next data set is HIV-1 AZT-R. The settings on record: read-out: IC50 (μM ± SD), HIV-1 AZT-R; RT-resistant isolate, subtype B, MT-2, coreceptor X4. As to the method:
(§4) The inhibitory activity of NYAD-201, and related stapled peptides on infection by laboratory-adapted HIV-1 strains was determined as previously described (Jiang et al. J Exp. Med 174:1557-1563, 1991) with minor modifications. Azidothymidine (AZT) was used as a positive control in the infectivity assays. In brief, 1×10^4 MT-2 cells were infected with HIV-1 at 100 TCID50 (50% tissue culture infective dose) (0.01 MOI [multiplicity of infection]) in 200 μl RPMI 1640 medium containing 10% FBS in the presence or absence of peptides at graded concentrations overnight. The culture supernatants were then removed and fresh media containing freshly prepared test peptide were added. On the fourth day post-infection, 100 μl of culture supernatants were collected from each well, mixed with equal volume of 5% Triton X-100 and tested for p24 antigen by ELISA.
(§5) In addition, NYAD-201, NYAD-202 and NYAD-203 were also tested using several laboratory-adapted and primary isolates in MT-2 cells and PBMC (peripheral blood mononuclear cells), respectively.

Data set [2] has as its system HIV-1 IIIB. As to the method: as §4, §5
Another data set concerns HIV-1RF/L-323-12-3. Particulars: read-out: IC50 (μM ± SD), HIV-1RF/L-323-12-3; PR-resistant isolate, subtype B, MT-2, coreceptor X4. On the procedure:
as §4, §5

Another data set has as its system HIV-1 SF2. Particulars: read-out: IC50 (μM ± SD), HIV-1 SF2; laboratory strain, subtype B, MT-2, coreceptor R5X4. As to the method:
as §4, §5

The next data set concerns HIV-1 RF. Particulars: read-out: IC50 (μM ± SD), HIV-1 RF; laboratory strain, subtype B, MT-2, coreceptor X4. On the procedure:
as §4, §5

Another data set deals with HIV-1 MN. Particulars: read-out: IC50 (μM ± SD), HIV-1 MN; laboratory strain, subtype B, MT-2, coreceptor X4. On the procedure:
as §4, §5

The next data set relates to Jurkat cells. The experiment in a line: Cytotoxicity, LDH leakage, Jurkat cells. The data set is classed as cell-based. The settings on record: 30 min, 2 hr and 4 hr of exposure. On the procedure:
as §1
Background: LDH leaks from cells whose membrane has failed.

The next data set deals with HIV-1 89.6. The data set is classed as cell-based. The settings on record: laboratory strain, subtype B, PBMC, coreceptor R5X4; read-out: IC50 (μM ± SD), HIV-1 89.6. As to the method: as §2
(§6) In addition, NYAD-201, NYAD-202 and NYAD-203 were also tested using several laboratory-adapted and primary isolates in MT-2 cells and PBMC (peripheral blood mononuclear cells), respectively. The inhibition of p24 production in MT-2 cells by NYAD-201 and its analogs were measured over a range of concentrations and the concentration required to inhibit 50% (IC50) of the p24 production was calculated. […] NYAD-201 and its analogs inhibited the laboratory strains with low μM potency (IC50˜2-8 μM), and both R5- and X4-tropic viruses were inhibited with similar potency.

The subject of a further data set is HIV-1 BaL. The data set is classed as cell-based. The settings on record: laboratory strain, subtype B, PBMC, coreceptor R5; read-out: IC50 (μM ± SD), HIV-1 BaL. On the procedure:
as §2, §6

The nature of data set [3]: Cytotoxicity, XTT method, PBMC. The data set is classed as cell-based. The settings on record: human. On the procedure: (§7) Cytotoxicity of peptides in MT-2 cells and PBMC was measured by the XTT [(sodium 3′-(1-(phenylamino)-carbonyl)-3,4-tetrazolium-bis(4-methoxy-6-nitro) bezenesulfonic acid hydrate)] method as previously described (Jiang et al., 2004). Briefly, for MT-2 cells, 100 μl of a peptide at graded concentrations was added to an equal volume of cells (1×10^5 cells/ml) in 96-well plates followed by incubation at 37° C. for 4 days, which ran parallel to the neutralization assay in MT-2 (except medium was added instead of virus). In the case of PBMC, 5×10^5 cells/ml were used and the cytotoxicity was measured after 7 days. After addition of XTT (PolySciences, Inc.), the soluble intracellular formazan was quantitated colorimetrically at 450 nm 4 hr later with a reference at 620 nm. The percent of cytotoxicity and the CC50 values were calculated as above (Table 2 and Table 3).
A general note: Tetrazolium assays rely on reduction of a dye to a coloured formazan, in cell work by metabolically active cells.

Data set [4] can be described thus: Cytotoxicity, XTT method, MT-2 cells. Particulars: human, read-out: CC50 (μM) ± SD, cytotoxicity in MT-2 cells. The data set is classed as cell-based, human. On the procedure: as §7
Data set [5] has as its system HIV-1 IIIB. The experiment in a line: Release and infectivity of HIV-1 virus released from infected MT-2 cells after treatment. It is filed as cell-based. Particulars: 500 nM, normalized for p24, TCID50. On the procedure:
On the fourth day post-infection, the supernatants were collected and filtered with a 0.45 μm PVDF membrane. One aliquot of the supernatants from each sample was mixed 1:1 with a solution of 5% Triton X-100 for p24 quantification, and stored at 4° C., another aliquot was immediately frozen at −80° C. and used to compare the infectivity of the viral particles released by NYAD-201 and NYAD-202 treated cells to the viral particles released by untreated cells. The protein p24 was first quantified by sandwich-ELISA, then the viral samples were normalized for the p24 content and titered to calculate the TCID50. MT-2 cells were infected with a two fold dilutions of virus from NYAD-201 and NYAD-202 treated and untreated cells. […] On the fourth day post infection supernatants were collected for p24 quantification by sandwich-ELISA and the TCID50 was calculated by the Spearman-Karber statistical method. […]
For these reasons, not only the quantity but also the quality of the viral particles released in the supernatant was evaluated. First, the p24/viral particles released in the supernatant following NYAD-201 and NYAD-202 treatment were quantified, then starting with the same amount of p24 per sample, the viruses released in the supernatant were titered. The TCID50 was calculated and expressed as percentage infectivity with respect to the untreated positive control. […]

Each structure is given as a SMILES string. Read-outs that look alike come from different tables or passages of the source. Bridge positions count the residues as written; N and C are the ends. Square brackets hold non-standard residues; d marks the D form. Peptide text beside a SMILES is read from it. S5 = C=CCCC[C@](C)(N)C(=O)O

Two compounds from patent publication US8933019B2, “Antiviral cell-penetrating peptides” (priority 2008, dated 2015) can be followed below.

By CC50 is commonly meant the concentration that lowers cell viability or growth by half. For `CSCC[C@@H]1NC(=O)[C@H](Cc2c[nH]c3ccccc23)NC(=O)[C@@](C)(NC(=O)[C@H](CCCCN)NC(=O)[C@@H](NC(=O)[C@H](C)NC(=O)[C@H](CCC(N)=O)NC(=O)[C@H](C)N)C(C)C)CCCC=CCCC[C@@](C)(C(=O)N[C@H](C(=O)N[C@@H](CC(C)C)C(=O)N[C@@H](CC(C)C)C(=O)N[C@H](C(=O)N[C@@H](C)C(N)=O)C(C)C)[C@@H](C)O)NC(=O)[C@H]([C@@H](C)O)NC1=O` [NYAD-202, AQAVKXWMTXTLLVA] (H-AQAVK[S5]WMT[S5]TLLVA-NH2; staple 6-10), the Solubility entry in data set [1] was “not very soluble”. Moreover, the IC50 in the data set with HIV-1 RU570 turned out to be 6.34 ± 2.22 µM; in the data set with HIV-1 93RW024 it was 3.71 ± 0.19 µM; in the data set on HIV-1 93IN101, 5.53 ± 0.39 µM; with HIV-1 98CN009, 4.08 ± 0.92 µM; in the data set with HIV-1 93BR020, 2.51 ± 0.43 µM; with HIV-1 92UG029, 3.97 ± 0.47 µM. The IC50 in the data set on HIV-1 CMU02 amounted to 4.2 ± 0.01 µM; with HIV-1 BCF02 it was 6.2 ± 1.2 µM; with HIV-1 92US657, 3.61 ± 0.57 µM; in the data set with HIV-1 AZT-R, 4.53 ± 1.19 µM; with HIV-1 IIIB [2] (read-out: IC50 (μM ± SD), HIV-1 IIIB, laboratory strain, subtype B, MT-2, coreceptor X4) it was 2.36 ± 0.33 µM; in the data set on HIV-1 IIIB [2] (read-out: IC50 (μM) ± SD, antiviral activity against HIV-1 IIIB, MT-2 cells, p24 production, fourth day post-infection), 2.36 ± 0.33 µM. Moreover, the IC50 was 3.5 ± 0.6 µM with HIV-1RF/L-323-12-3; 4.48 ± 0.84 µM with HIV-1 SF2; 2.64 ± 0.39 µM in the data set with HIV-1 RF; 2.47 ± 0.71 µM in the data set on HIV-1 MN; 3.47 ± 0.22 µM in the data set on HIV-1 89.6; 2.23 ± 0.44 µM in the data set with HIV-1 BaL. Also, in the data set on Jurkat cells, the “Cytotoxicity in Jurkat cells (LDH leakage)” value is “did not demonstrate toxicity”. Further, the 50% cytotoxic concentration (CC50) at 7 days in data set [3] was more than 116 µM. Besides, the CC50 at 4 days in data set [4] amounted to 30.2 ± 4.32 µM.
For the compound `Cc1c(O)cccc1C(=O)N[C@@H](CSc1ccccc1)[C@H](O)CN1C[C@H]2CCCC[C@H]2C[C@H]1C(=O)NC(C)(C)C` [NFV, nelfinavir, reference compound], in the data set on HIV-1 IIIB [5], the “Infectivity of virus produced by treated cells” value is recorded as “not infectious or slightly infectious”.
